In ChEMBL document CHEMBL1201862, “PubChem BioAssay data set” (2004):
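Grown in 96-well plates, cells were treated for 48 hours with each compound at five concentrations. Insufficient inhibition: endpoint recorded as highest concentration tested. GI50 is the concentration that inhibits growth by half.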 Active and inactive are the calls of the source. Cut-off read from the data, not from the text of the source: active = GI50 up to about 1.1 µM and inactive = higher.

Assays:
Assay in all cases: growth of human tumour cells (NCI), 48 h
[1] = tested on: M14
[2] = tested on: HOP-62
[3] = tested on: OVCAR-8
[4] = tested on: UACC-257
[5] = tested on: SK-OV-3
[6] = tested on: HOP-92
[7] = tested on: SNB-19
[8] = tested on: SR
[9] = tested on: HL-60
[10] = tested on: SN12C
[11] = tested on: MOLT-4
[12] = tested on: NCI-H522
[13] = tested on: SK-MEL-5
[14] = tested on: 786-0
[15] = tested on: HCT-15
[16] = tested on: MDA-MB-231
[17] = tested on: MDA-N
[18] = tested on: IGROV-1
[19] = tested on: RXF 393
[20] = tested on: NCI/ADR-RES

Measured: GI50

COc1ccc(-c2nc(N)c3ncn(C4OC(CO)C(O)C4O)c3n2)cc1 (stereo not given)
> 100 µM: [15]
inactive: [1] > 100 µM | [2] > 100 µM | [3] > 100 µM | [4] > 100 µM | [5] > 100 µM | [6] > 100 µM | [7] > 100 µM | [8] > 100 µM | [9] > 100 µM | [10] > 100 µM | [11] 70.6 µM | [12] 62.8 µM | [13] > 100 µM | [14] > 100 µM | [16] > 100 µM | [17] > 100 µM | [18] > 100 µM | [19] > 100 µM | [20] > 100 µM
